Test [1] concerns the target Acetylcholinesterase (Electrophorus electricus, UniProt O42275). Put plainly: AChE and BChE Inhibition Assay. Particulars: pH 8; 25 °C. The procedure: (§1) A […] well plate was used for screening purpose. Each pyridopyrazine derivative was first dissolved in dimethyl sulfoxide to prepare the stock solutions. The synthetic compounds were then screened against electric eel acetylcholinesterase (eeAChE) and equine butyrylcholinesterase (BChE) at different concentrations (1 µM or 10 µM) of dimethyl sulfoxide as negative control in primarily screening. […] The reaction mixture which comprised of buffer solution (20 µL), synthetic compound (10 µL) and enzyme (0.5 and 3.4 U/mg, eeAChE or equine BChE) was primarily incubated for ten minutes at room temperature (25 C). Subsequently to the mixture, once the preincubation over, the acetylthiocholine iodide or butyrylthiocholine chloride (10 μL of 10 mM) was added and incubated it further for

In test [2] the target is Carboxylic ester hydrolase (Equus caballus, UniProt Q9N1N9). Kind of test: AChE and BChE Inhibition Assay. To be noted: pH 8; 25 °C. The procedure: as §1
Carboxylic ester hydrolase, sequence (Q9N1N9 whole entry): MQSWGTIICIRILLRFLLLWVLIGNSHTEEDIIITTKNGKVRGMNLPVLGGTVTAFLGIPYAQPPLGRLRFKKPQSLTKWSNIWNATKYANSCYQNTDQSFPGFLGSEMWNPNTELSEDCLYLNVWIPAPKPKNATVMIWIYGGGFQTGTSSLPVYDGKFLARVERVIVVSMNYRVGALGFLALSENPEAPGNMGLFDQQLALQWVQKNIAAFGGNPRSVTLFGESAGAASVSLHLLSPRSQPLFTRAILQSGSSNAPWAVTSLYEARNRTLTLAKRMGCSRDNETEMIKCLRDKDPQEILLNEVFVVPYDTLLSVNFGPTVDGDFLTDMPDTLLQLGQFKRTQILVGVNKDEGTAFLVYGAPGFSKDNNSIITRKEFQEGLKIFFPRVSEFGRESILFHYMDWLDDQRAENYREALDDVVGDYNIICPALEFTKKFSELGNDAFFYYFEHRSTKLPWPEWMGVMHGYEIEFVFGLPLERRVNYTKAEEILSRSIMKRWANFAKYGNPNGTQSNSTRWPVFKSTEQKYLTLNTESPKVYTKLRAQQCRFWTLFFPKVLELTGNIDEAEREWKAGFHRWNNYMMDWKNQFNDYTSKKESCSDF

Acetylcholinesterase, sequence (O42275 whole entry): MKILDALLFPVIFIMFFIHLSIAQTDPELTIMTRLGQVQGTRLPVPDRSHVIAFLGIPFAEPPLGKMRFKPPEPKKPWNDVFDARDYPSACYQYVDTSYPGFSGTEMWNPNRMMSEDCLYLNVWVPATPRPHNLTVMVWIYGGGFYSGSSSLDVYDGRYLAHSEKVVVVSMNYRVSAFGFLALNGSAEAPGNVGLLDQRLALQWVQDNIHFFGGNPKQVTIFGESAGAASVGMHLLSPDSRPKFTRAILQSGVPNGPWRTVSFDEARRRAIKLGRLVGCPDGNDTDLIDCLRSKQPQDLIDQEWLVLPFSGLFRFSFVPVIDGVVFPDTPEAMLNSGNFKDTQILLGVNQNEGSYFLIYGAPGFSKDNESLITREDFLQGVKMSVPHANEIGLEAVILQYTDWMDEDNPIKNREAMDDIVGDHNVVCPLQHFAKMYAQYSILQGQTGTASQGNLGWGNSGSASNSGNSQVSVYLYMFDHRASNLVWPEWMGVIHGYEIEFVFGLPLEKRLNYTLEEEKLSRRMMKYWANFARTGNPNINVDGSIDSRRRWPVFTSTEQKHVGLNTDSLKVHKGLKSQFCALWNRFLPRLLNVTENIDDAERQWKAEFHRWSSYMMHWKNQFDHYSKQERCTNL

On to `Brc1ccccc1-c1cnc2cccnc2n1` [3-(2′-Bromophenyl)pyrido[2,3-b]pyrazine (6k)], for which the IC50 in test [1] is 4.03 µM; in test [2], 7.45 µM.

For the molecule `Clc1ccccc1-c1cnc2cccnc2n1` [3-(2′-Chlorophenyl)pyrido[2,3-b]pyrazine (6i)], the IC50 in test [1] was determined as 2.52 µM; in test [2], 9.67 µM.

Regarding `Cc1ccccc1-c1cnc2cccnc2n1` [3-(2′-Methylphenyl)pyrido[2,3-b]pyrazine (6d)], the IC50 in test [1] was determined as 5.39 µM; in test [2], 21.2 µM. Take `O=[N+]([O-])c1ccccc1-c1cnc2cccnc2n1` [3-(2′-Nitrophenyl)pyrido[2,3-b]pyrazine (6o)]: the IC50 was 3 µM in test [1] and 22.3 µM in test [2]. For the molecule `Brc1cccc(-c2cnc3cccnc3n2)c1` [3-(3′-Bromophenyl)pyrido[2,3-b]pyrazine (6j)], the IC50 was 3.12 µM in test [1] and 11.5 µM in test [2]. Turning to `Clc1cccc(-c2cnc3cccnc3n2)c1` [3-(3′-Chlorophenyl)pyrido[2,3-b]pyrazine (6h)], the values for the IC50 in test [1] and in test [2] were 1.26 µM and 12.1 µM, respectively.

Regarding `Fc1cccc(-c2cnc3cccnc3n2)c1` [3-(3′-Fluorophenyl)pyrido[2,3-b]pyrazine (6f)], the IC50 in test [1] was 0.899 µM; in test [2], 79.8 µM.

As for `Cc1cccc(-c2cnc3cccnc3n2)c1` [3-(3′-Methylphenyl)pyrido[2,3-b]pyrazine (6c)], the IC50 in test [1] was found to be 5.88 µM; in test [2], 0.583 µM. Take `O=[N+]([O-])c1cccc(-c2cnc3cccnc3n2)c1` [3-(3′-Nitrophenyl)pyrido[2,3-b]pyrazine (6n)]: the IC50 in test [1] was 0.466 µM; in test [2] it was 1.89 µM.

As to `c1cnc2nc(-c3ccc(N4CCCCC4)cc3)cnc2c1` [3-(4′-(Piperidin-1-yl)phenyl)pyrido[2,3-b]pyrazine (6p)], the IC50 in test [1] is 4.75 µM; in test [2], 3.91 µM. As to `Clc1ccc(-c2cnc3cccnc3n2)cc1` [3-(4′-Chlorophenyl)pyrido[2,3-b]pyrazine (6g)], the IC50 in test [1] came to 2.59 µM; in test [2] it was 2.63 µM. `Fc1ccc(-c2cnc3cccnc3n2)cc1` [3-(4′-Fluorophenyl)pyrido[2,3-b]pyrazine (6e)]: the IC50 in test [1] turned out to be 2.45 µM; in test [2], 11.2 µM. For the molecule `Ic1ccc(-c2cnc3cccnc3n2)cc1` [3-(4′-Iodophenyl)pyrido[2,3-b]pyrazine (6l)], the IC50 in test [1] turned out to be 4.05 µM; in test [2] it was 31.2 µM. Take `Cc1ccc(-c2cnc3cccnc3n2)cc1` [3-(4′-Methylphenyl)pyrido[2,3-b]pyrazine (6b)]: the IC50 in test [1] came to 3.06 µM; in test [2], 6.44 µM.

As for `O=[N+]([O-])c1ccc(-c2cnc3cccnc3n2)cc1` [3-(4′-Nitrophenyl)pyrido[2,3-b]pyrazine (6m)], the IC50 is 1.97 µM in test [1] and 20.8 µM in test [2]. Take `c1ccc(-c2cnc3cccnc3n2)cc1` [3-Phenylpyrido[2,3-b]pyrazine (6a)]: the results for the IC50 in test [1] and in test [2] were 9.65 µM and 35.4 µM, respectively.

Turning to `c1cnc2nc3c(nc2c1)CCCC3` [6,7,8,9-tetrahydropyrido[2,3-b]quinoxaline (6q)], the concentration for half-maximal inhibition (IC50) in test [1] turned out to be 5.78 µM; in test [2], 10.9 µM. `CN(C)C(=O)Oc1cccc([N+](C)(C)C)c1` [m-Trimethylammoniumphenyldimethylcarbamate] had an IC50 in test [2] of 49.6 µM. This lies in the double-digit micromolar range.

The values above are taken from BindingDB's records for doi:10.1111/cbdd.12579 (University of Karachi, 2015).
